According to patent publication US9938328B2, “Use of PEDF-derived polypeptides for treating alopecia and/or hair depigmentation” (MacKay Memorial Hospital, priority 2012, dated 2018):

Assays:
C57BL/6 mice [1] = experiment: Hydrogen peroxide (oxidative stress)-induced hair loss and depigmentation in depilated mice; type: in vivo, mouse; conditions: ointment with 25 μM 44-mer
Experimental: (§1) Before use, the stock containing the 44-mer was prepared into a working dilution, which is then mixed with an antibiotic ointment containing 5 mg/g neomycin sulfate and 12.5 mg/g bacitracin to obtain an antibiotic ointment containing 25 μM of 44-mer. As to other PEDF peptides, 5 μl of 5 mM PEDF peptide stock was gradually dissolved in ethyl alcohol (30% w/w in distilled water), and then 1-oleoyl-rac-glycerol (1% w/w, a skin penetration enhancer) and light mineral oil (1% w/w) were gradually added. The solution was finally gelled by adding hydroxypropyl methylcellulose (5% w/w) to a final volume of 1 ml. A DMSO vehicle corresponding to the peptide formulation was prepared for the purpose of in vivo comparison. FITC-29-mer was also dissolved in the same formulation for applied on top of skin to determining the follicular distribution of FITC-29-mer.
(§2) For topical treatments, 350 mg ointment or gel containing 25 μM of PEDF peptide was spread gently over dorsal skin per mouse.
In this example, the relationships between the stress caused by endogenous challenge (e.g., oxidants) and hair loss and hair graying were investigated. The mice were selected and depilated as described in Example 1 above. On day-9 post-depilation, the mice were subcutaneously injected with hydrogen peroxide at a dose of 10 ml/kg body weight. […]

C57BL/6 mice [2] = experiment: Chemotherapy (CYP)-induced hair loss and depigmentation in depilated mice, topical 44-mer ointment; type: in vivo, mouse
Experimental: as §1, §2
For immunostaining, de-paraffinized tissue sections were blocked with 10% goat serum for 1 hour. Dual staining was done using primary antibodies against c-kit (1:100 dilution; red) and tyrosinase (1:100 dilution) at 37° C. for 2 hours, followed by incubation with the rhodamine-conjugated goat anti-rabbit IgG antibody (1:500 dilution) for 1 hour at room temperature a before counterstaining with hematoxylin (blue) for about 7 minutes.
The vibrissae follicle cryosections were washed three times in PBS. Formalin-fixed, paraffin-embedded skin specimens were deparaffinized in xylene and rehydrated in a graded series of ethanol. Sections were then stained with TdT-mediated dUTP nick-end labeling (TUNEL)-based kit (Roche Molecular Biochemicals, Indianapolis, Ind.) following the manufacturer's instructions. The cell number was monitored by counterstaining with Hoechst 33258 (blue). The nuclei were calculated in ten randomly selected fields of the three different chambers by a Zeiss epifluorescence microscope (400×, 10 fields/sample). Pictures were recorded on Zeiss software.
6-week-old female C57BL/6 mice that had normal black fur (i.e., those had heavily melanized terminal hair shafts) were used in this example. In four independent experiments, a total of 80 mice were used. C57BL-6 mice have been widely used in the research of alopecia and hair-depigmentation induced by chemotherapy. Only mice in the resting stage of the hair cycle (telogen) were used in these studies. Since pigment production (melanogenesis) in mice occurs exclusively in anagen follicles, telogen C57BL-6 mice could be recognized by the homogeneously pink color of their back skin. Anagen was induced in the back skin of telogen mice by depilation.
In order to obtain mice that were in exactly the same stage of anagen development, the dorsal hairs were carefully shaved with an electric clipper. Nine days after the depilation, hair grown to anagen phase as judged by skin color from pink (telogen skin) to gray (early stage of anagen VI).
On day-9 post-depilation, mice were anesthetized by an intraperitoneal injection of a mixture of zoletil (6 mg/kg) and xylazine (3 mg/kg). Mice were randomly assigned to the following experimental groups. In the CYP/vehicle group, mice received intraperitoneal injection of cyclophosphamide (CYP, an anti-cancer drug) (150 mg/kg), and 350 mg antibiotic ointment was applied to the back skin at the same time. […]

“VLLSPLSVATALSALSLGAEQRTESIIHRALYYDLISSPDIHGT [44-mer, 44-mer fragment (residues 78-121) of human PEDF]” was tested. Which “hair growth activity versus H2O2/vehicle (photographs, FIG. 4)” value (C57BL/6 mice [1]; 22 days after the H2O2 injection (10 ml/kg s.c.)) did it give?
The value was “better hair growth activity”.

What about the “hair color versus H2O2/vehicle (FIG. 4)” value (C57BL/6 mice [1]; 22 days after the H2O2 injection) of the same sequence?
Its value is “darker”.

What about the “hair growth activity versus CYP/vehicle (photographs, FIG. 1)” value (C57BL/6 mice [2]; 7 and 36 days after the CYP injection) of the same sequence?
The value was “better hair growth activity”.

What about the “hair colour versus CYP and CYP/vehicle groups (FIG. 1)” value (C57BL/6 mice [2]; 36 days after CYP injection) of the same sequence?
The value was “substantially darker hairs”.

What about the “TUNNEL Labeling Index (%)” value (C57BL/6 mice [2]; no CYP injection, 350 mg antibiotic ointment containing 44-mer on back skin) of the same sequence?
The value was less than 0.1%.

And the “TUNNEL Labeling Index (%)” value (C57BL/6 mice [2]; with CYP 150 mg/kg i.p., 350 mg antibiotic ointment containing 25 μM 44-mer on back skin daily)?
The value was 10.6 ± 1.4 %.

And the “c-kit and tyrosinase expression in the bulge (immunostaining, FIG. 3)” value (C57BL/6 mice [2]; with CYP, barely detected in CYP/vehicle group)?
Its value is “c-kit and tyrosinase expression were found in the bulge”.
